Patent US10294243B2, “Bicyclic compounds as pesticides” (BAYER CROPSCIENCE AKTIENGESELLSCHAFT, priority 2014, dated 2019)
Where two headings read alike, the source gives them in different places.

Key:
Myzus persicae = Myzus persicae - spray test (Chinese cabbage leaf discs); format: in vivo; conditions: application rate 500 g/ha, after 6 days; for pest or weed control at 500 g/ha: Myzus persicae, foliar, 144 h, read-out: efficacy (aphids killed)
Protocol: Myzus persicae—Spray Test
Solvent: 78 parts by weight of acetone • • 1.5 parts by weight of dimethylformamide
Emulsifier: alkylaryl polyglycol ether
To produce further test concentrations, the preparation is diluted with emulsifier-containing water.
After 6 days, the efficacy in % is determined 100% means that all the aphids have been killed; 0% means that none of the aphids have been killed.

[1] = log P by HPLC on reversed-phase C18 columns (OECD Guideline 117); method [a] acidic pH 2.7, method [b] neutral pH 7.8; format: physicochemical; conditions: for chromatographic logP: reversed-phase C18 HPLC column
[2] = HPLC reversed-phase C18, method [a] acidic pH 2.7
[3] = HPLC reversed-phase C18, method [b] neutral pH 7.8
[4] = HPLC reversed-phase C18, method [a] acidic pH 2.7, read-out: logP[a]
[5] = HPLC reversed-phase C18, method [b] neutral pH 7.8, read-out: logP[b]

Row | Structure (SMILES) | efficacy (aphids killed) (Myzus persicae) [%] | logP[a] [1, 2] | logP[b] [1, 3] | pest or weed control at 500 g/ha (Myzus persicae) [%] | chromatographic logP [1, 4] | chromatographic logP [1, 5]
1 | Cc1ccc(-n2cnc3nc(-c4cccnc4)sc3c2=O)cc1[S+]([O-])CC(F)(F)F (stereo not shown) [Compound 48] | 100 | 1.86 | 1.85 |  |  | 
2 | CC(C)Sc1cccc(-n2cnc3nc(-c4cccnc4)sc3c2=O)c1 [Compound 24] | 90 | 2.76 | 2.70 |  |  | 
3 | CSc1cc(-n2cnc3nc(-c4cncc(F)c4)sc3c2=O)ccc1C [Compound 70] | 100 | 2.82 | 2.75 |  |  | 
4 | O=c1c2sc(-c3cccnc3)nc2ncn1Cc1ccncc1 [Compound 36] | 90 | 0.55 |  |  |  | 
5 | CCSc1ccc(-n2cnc3nc(-c4cccnc4)sc3c2=O)cc1 [Compound 60] | 100 | 2.41 | 2.45 |  |  | 
6 | CC(C)Cn1cnc2nc(-c3cccnc3)sc2c1=O [Compound 3, 6-Isobutyl-2-(pyridin-3-yl)[1,3]thiazolo[4,5-d]pyrimidin-7(6H)-one] |  |  |  | 100 | 1.7 | 
7 | Cc1cc(F)c(-n2nnc3nc(-c4cccnc4)sc3c2=O)cc1SCC(F)(F)F [Compound 58, 3-{2-Fluoro-4-methyl-5-[(2,2,2-trifluoroethyl)sulphanyl]phenyl}-6-(pyridin-3-yl)[1,3]thiazolo[4,5-d][1,2,3]triazin-4(3H)-one] |  |  |  | 90 | 3.45 | 3.32
8 | CC[S+]([O-])c1ccc(-n2cnc3nc(-c4cccnc4)sc3c2=O)cc1 (stereo not shown) [Compound 61] | 100 | 1.10 | 1.22 |  |  | 
9 | O=c1c2sc(-c3cccnc3)nc2ncn1Cc1ccccn1 [Compound 34, 2-(Pyridin-3-yl)-6-(pyridin-2-ylmethyl)[1,3]thiazolo[4,5-d]pyrimidin-7(6H)-one] |  |  |  | 100 | 1.09 | 
10 | Cc1ccc(-n2cnc3nc(-c4cncnc4)sc3c2=O)cc1 [Compound 75] |  | 1.80 | 1.72 |  |  | 
11 | O=c1c2sc(-c3cccnc3)nc2ncn1Cc1cccc(C(F)(F)F)c1 [Compound 28, 2-(Pyridin-3-yl)-6-[3-(trifluoromethyl)benzyl][1,3]thiazolo[4,5-d]pyrimidin-7(6H)-one] |  |  |  |  | 2.47 | 2.43
12 | COc1cccc(Cn2cnc3nc(-c4cccnc4)sc3c2=O)c1 [Compound 32] |  | 1.91 | 1.92 |  |  | 
13 | O=c1c2sc(-c3cccnc3)nc2ncn1-c1ccccc1SCC(F)(F)F [Compound 68, 2-(Pyridin-3-yl)-6-{2-[(2,2,2-trifluoroethyl)sulphanyl]phenyl}[1,3]thiazolo[4,5-d]pyrimidin-7(6H)-one] |  |  |  |  | 2.34 | 2.29
14 | CN(C)S(=O)(=O)c1cccc(-n2cnc3nc(-c4cccnc4)sc3c2=O)c1 [Compound 42, N,N-Dimethyl-3-[7-oxo-2-(pyridin-3-yl)[1,3]thiazolo[4,5-d]pyrimidin-6(7H)-yl]benzenesulphonamide] |  |  |  |  | 1.63 | 1.72
15 | O=c1c2sc(-c3cccnc3)nc2ncn1-c1ccccc1[S+]([O-])CC(F)(F)F (stereo not shown) [Compound 69, 2-(Pyridin-3-yl)-6-{2-[(2,2,2-trifluoroethyl)sulphinyl]phenyl}[1,3]thiazolo[4,5-d]pyrimidin-7(6H)-one] |  |  |  |  | 1.74 | 1.75
16 | CN(C)C(=O)c1cc2cc(-n3cnc4nc(-c5cccnc5)sc4c3=O)ccc2s1 [Compound 65] |  | 1.70 | 1.70 |  |  | 
17 | Cc1nc(Cn2cnc3nc(-c4cccnc4)sc3c2=O)cs1 [Compound 38, 6-[(2-Methyl-1,3-thiazol-4-yl)methyl]-2-(pyridin-3-yl)[1,3]thiazolo[4,5-d]pyrimidin-7(6H)-one] |  |  |  |  | 1.36 | 1.42
